Assays:
Hepatotoxicity [1] = tested on: Hepatotoxicity;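 on HepSE Combined Scores: combined hepatic side effect score as listed in the training data of the Drug Induced Liver Injury Prediction System (DILIps)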;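 on HepSE cholecystitis: Cholecystitis-related hepatic side effect score drawn from the DILIps (drug-induced liver injury prediction) training data set; call rule not given here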;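 on HepSE cholelithiasis: hepatic side effect score for cholelithiasis, drawn from the DILIps training data for predicting drug-induced liver injury; call rule not given here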;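 on HepSE elevated liver function tests: hepatic side effect score for raised liver function tests, as recorded in the DILIps training set used for predicting drug-induced liver injury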;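 on HepSE hepatic necrosis: score of hepatic side effects for hepatic necrosis, drawn from the training data of DILIps, a prediction system for drug-induced liver injury; call rule not given here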;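 on HepSE liver function tests abnormal: hepatic side effect score taken from the DILIps (drug-induced liver injury prediction system) training data, here covering abnormal liver function test findings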
Hepatotoxicity [2] = tested on: Hepatotoxicity; remark: listed apart in the source;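 on HepSE Combined Scores: combined hepatic side effect score as listed in the training data of the Drug Induced Liver Injury Prediction System (DILIps)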;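 on HepSE cholecystitis: Cholecystitis-related hepatic side effect score drawn from the DILIps (drug-induced liver injury prediction) training data set; call rule not given here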;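 on HepSE cholelithiasis: hepatic side effect score for cholelithiasis, drawn from the DILIps training data for predicting drug-induced liver injury; call rule not given here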;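 on HepSE elevated liver function tests: hepatic side effect score for raised liver function tests, as recorded in the DILIps training set used for predicting drug-induced liver injury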;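 on HepSE hepatic necrosis: score of hepatic side effects for hepatic necrosis, drawn from the training data of DILIps, a prediction system for drug-induced liver injury; call rule not given here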;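 on HepSE liver function tests abnormal: hepatic side effect score taken from the DILIps (drug-induced liver injury prediction system) training data, here covering abnormal liver function test findings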
Hepatotoxicity [3] = tested on: Hepatotoxicity; remark: listed apart in the source;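 on HepSE Combined Scores: combined hepatic side effect score as listed in the training data of the Drug Induced Liver Injury Prediction System (DILIps)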;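 on HepSE cholecystitis: Cholecystitis-related hepatic side effect score drawn from the DILIps (drug-induced liver injury prediction) training data set; call rule not given here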;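 on HepSE cholelithiasis: hepatic side effect score for cholelithiasis, drawn from the DILIps training data for predicting drug-induced liver injury; call rule not given here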;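 on HepSE elevated liver function tests: hepatic side effect score for raised liver function tests, as recorded in the DILIps training set used for predicting drug-induced liver injury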;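 on HepSE hepatic necrosis: score of hepatic side effects for hepatic necrosis, drawn from the training data of DILIps, a prediction system for drug-induced liver injury; call rule not given here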;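 on HepSE liver function tests abnormal: hepatic side effect score taken from the DILIps (drug-induced liver injury prediction system) training data, here covering abnormal liver function test findings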
Hepatotoxicity [4] = tested on: Hepatotoxicity; remark: listed apart in the source;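 on HepSE Combined Scores: combined hepatic side effect score as listed in the training data of the Drug Induced Liver Injury Prediction System (DILIps)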;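 on HepSE cholecystitis: Cholecystitis-related hepatic side effect score drawn from the DILIps (drug-induced liver injury prediction) training data set; call rule not given here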;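 on HepSE cholelithiasis: hepatic side effect score for cholelithiasis, drawn from the DILIps training data for predicting drug-induced liver injury; call rule not given here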;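 on HepSE elevated liver function tests: hepatic side effect score for raised liver function tests, as recorded in the DILIps training set used for predicting drug-induced liver injury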;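 on HepSE hepatic necrosis: score of hepatic side effects for hepatic necrosis, drawn from the training data of DILIps, a prediction system for drug-induced liver injury; call rule not given here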
Hepatotoxicity [5] = tested on: Hepatotoxicity; remark: listed apart in the source
Hepatotoxicity [6] = tested on: Hepatotoxicity; remark: listed apart in the source
Hepatotoxicity [7] = tested on: Hepatotoxicity; remark: listed apart in the source
Hepatotoxicity [8] = tested on: Hepatotoxicity; remark: listed apart in the source
Hepatotoxicity [9] = tested on: Hepatotoxicity; remark: listed apart in the source
Hepatotoxicity [10] = tested on: Hepatotoxicity; remark: listed apart in the source
Hepatotoxicity [11] = tested on: Hepatotoxicity; remark: listed apart in the source
Hepatotoxicity [12] = tested on: Hepatotoxicity; remark: listed apart in the source
Hepatotoxicity [13] = tested on: Hepatotoxicity; remark: listed apart in the source
Hepatotoxicity [14] = tested on: Hepatotoxicity; remark: listed apart in the source

`Cc1nnc(SCC2=C(C(=O)O)N3C(=O)[C@@H](NC(=O)Cn4cnnn4)[C@H]3SC2)s1` [CEFAZOLIN] was tested, and the HepSE_cholelithiasis (Hepatotoxicity [1]) was 0, the HepSE_hepatic necrosis (Hepatotoxicity [2]) was 0 and the “HepSE_elevated liver function tests” value (Hepatotoxicity [3]) was 0. The HepSE_liver fatty (Hepatotoxicity [4]) was 0, the “HepSE_Combined Scores” value (Hepatotoxicity [5]) was 1 and the HepSE_cholecystitis (Hepatotoxicity [6]) was 0. The HepSE_bilirubinemia (Hepatotoxicity [7]) was 0, the “HepSE_liver function tests abnormal” value (Hepatotoxicity [8]) was 0 and the HepSE_liver disease (Hepatotoxicity [9]) was 0. It also gave a HepSE_jaundice (Hepatotoxicity [10]) of 0, a HepSE_hepatomegaly (Hepatotoxicity [11]) of 0 and a HepSE_cirrhosis (Hepatotoxicity [12]) of 0. For the same compound, the HepSE_hepatitis (Hepatotoxicity [13]) was 1 and the HepSE_hepatic failure (Hepatotoxicity [14]) was 0.

In the case of `CO/N=C(\C(=O)N[C@@H]1C(=O)N2C(C(=O)OCOC(=O)C(C)(C)C)=C(/C=C\c3scnc3C)CS[C@H]12)c1csc(N)n1` [CEFDITOREN PIVOXIL], the HepSE_cholelithiasis (Hepatotoxicity [1]) is reported as 0, the HepSE_hepatic necrosis (Hepatotoxicity [2]) is reported as 0 and the “HepSE_elevated liver function tests” value (Hepatotoxicity [3]) is reported as 0. The HepSE_liver fatty (Hepatotoxicity [4]) was 0, the “HepSE_Combined Scores” value (Hepatotoxicity [5]) was 1 and the HepSE_cholecystitis (Hepatotoxicity [6]) was 0. The HepSE_bilirubinemia (Hepatotoxicity [7]) was 0, the “HepSE_liver function tests abnormal” value (Hepatotoxicity [8]) was 1 and the HepSE_liver disease (Hepatotoxicity [9]) was 0. The HepSE_jaundice (Hepatotoxicity [10]) was 0, the HepSE_hepatomegaly (Hepatotoxicity [11]) was 0 and the HepSE_cirrhosis (Hepatotoxicity [12]) was 0. It also gave a HepSE_hepatitis (Hepatotoxicity [13]) of 0 and a HepSE_hepatic failure (Hepatotoxicity [14]) of 0.

With `C=CC1=C(C(=O)O)N2C(=O)[C@@H](NC(=O)/C(=N\OCC(=O)O)c3csc(N)n3)[C@H]2SC1` [CEFIXIME] the HepSE_cholelithiasis (Hepatotoxicity [1]) was 0, the HepSE_hepatic necrosis (Hepatotoxicity [2]) was 0 and the “HepSE_elevated liver function tests” value (Hepatotoxicity [3]) was 0. The HepSE_liver fatty (Hepatotoxicity [4]) was 0, the “HepSE_Combined Scores” value (Hepatotoxicity [5]) was 3 and the HepSE_cholecystitis (Hepatotoxicity [6]) was 0. For the same compound, the HepSE_bilirubinemia (Hepatotoxicity [7]) was 1, the “HepSE_liver function tests abnormal” value (Hepatotoxicity [8]) was 0 and the HepSE_liver disease (Hepatotoxicity [9]) was 0. It also gave a HepSE_jaundice (Hepatotoxicity [10]) of 1, a HepSE_hepatomegaly (Hepatotoxicity [11]) of 0 and a HepSE_cirrhosis (Hepatotoxicity [12]) of 0. It also gave a HepSE_hepatitis (Hepatotoxicity [13]) of 1 and a HepSE_hepatic failure (Hepatotoxicity [14]) of 0.

For `CCN1CCN(C(=O)N[C@@H](C(=O)N[C@@H]2C(=O)N3C(C(=O)O)=C(CSc4nnnn4C)CS[C@H]23)c2ccc(O)cc2)C(=O)C1=O` [CEFOPERAZONE], the HepSE_cholelithiasis (Hepatotoxicity [1]) was 0, the HepSE_hepatic necrosis (Hepatotoxicity [2]) was 0 and the “HepSE_elevated liver function tests” value (Hepatotoxicity [3]) was 0. For the same compound, the HepSE_liver fatty (Hepatotoxicity [4]) was 0, the “HepSE_Combined Scores” value (Hepatotoxicity [5]) was 2 and the HepSE_cholecystitis (Hepatotoxicity [6]) was 0. The HepSE_bilirubinemia (Hepatotoxicity [7]) was 0, the “HepSE_liver function tests abnormal” value (Hepatotoxicity [8]) was 0 and the HepSE_liver disease (Hepatotoxicity [9]) was 1. For the same compound, the HepSE_jaundice (Hepatotoxicity [10]) was 0, the HepSE_hepatomegaly (Hepatotoxicity [11]) was 0 and the HepSE_cirrhosis (Hepatotoxicity [12]) was 0. It also gave a HepSE_hepatitis (Hepatotoxicity [13]) of 1 and a HepSE_hepatic failure (Hepatotoxicity [14]) of 0.

With `CO/N=C(\C(=O)N[C@@H]1C(=O)N2C(C(=O)O)=C(COC(C)=O)CS[C@H]12)c1csc(N)n1` [CEFOTAXIME] the HepSE_cholelithiasis (Hepatotoxicity [1]) was 0, the HepSE_hepatic necrosis (Hepatotoxicity [2]) was 0 and the “HepSE_elevated liver function tests” value (Hepatotoxicity [3]) was 0. The HepSE_liver fatty (Hepatotoxicity [4]) was 0, the “HepSE_Combined Scores” value (Hepatotoxicity [5]) was 2 and the HepSE_cholecystitis (Hepatotoxicity [6]) was 0. The HepSE_bilirubinemia (Hepatotoxicity [7]) was 0, the “HepSE_liver function tests abnormal” value (Hepatotoxicity [8]) was 0 and the HepSE_liver disease (Hepatotoxicity [9]) was 0. The HepSE_jaundice (Hepatotoxicity [10]) was 1, the HepSE_hepatomegaly (Hepatotoxicity [11]) was 0 and the HepSE_cirrhosis (Hepatotoxicity [12]) was 0. The HepSE_hepatitis (Hepatotoxicity [13]) was 1 and the HepSE_hepatic failure (Hepatotoxicity [14]) was 0.

With `CO[C@@]1(NC(=O)C2SC(=C(C(N)=O)C(=O)O)S2)C(=O)N2C(C(=O)O)=C(CSc3nnnn3C)CS[C@@H]21` (stereo partly drawn) [CEFOTETAN] the HepSE_cholelithiasis (Hepatotoxicity [1]) was 0, the HepSE_hepatic necrosis (Hepatotoxicity [2]) was 0 and the “HepSE_elevated liver function tests” value (Hepatotoxicity [3]) was 0. For the same compound, the HepSE_liver fatty (Hepatotoxicity [4]) was 0, the “HepSE_Combined Scores” value (Hepatotoxicity [5]) was 0 and the HepSE_cholecystitis (Hepatotoxicity [6]) was 0. For the same compound, the HepSE_bilirubinemia (Hepatotoxicity [7]) was 0, the “HepSE_liver function tests abnormal” value (Hepatotoxicity [8]) was 0 and the HepSE_liver disease (Hepatotoxicity [9]) was 0. It also gave a HepSE_jaundice (Hepatotoxicity [10]) of 0, a HepSE_hepatomegaly (Hepatotoxicity [11]) of 0 and a HepSE_cirrhosis (Hepatotoxicity [12]) of 0. For the same compound, the HepSE_hepatitis (Hepatotoxicity [13]) was 0 and the HepSE_hepatic failure (Hepatotoxicity [14]) was 0.

`CO[C@@]1(NC(=O)Cc2cccs2)C(=O)N2C(C(=O)O)=C(COC(N)=O)CS[C@@H]21` [CEFOXITIN] was tested, and the HepSE_cholelithiasis (Hepatotoxicity [1]) was 0, the HepSE_hepatic necrosis (Hepatotoxicity [2]) was 0 and the “HepSE_elevated liver function tests” value (Hepatotoxicity [3]) was 0. For the same compound, the HepSE_liver fatty (Hepatotoxicity [4]) was 0, the “HepSE_Combined Scores” value (Hepatotoxicity [5]) was 1 and the HepSE_cholecystitis (Hepatotoxicity [6]) was 0. For the same compound, the HepSE_bilirubinemia (Hepatotoxicity [7]) was 0, the “HepSE_liver function tests abnormal” value (Hepatotoxicity [8]) was 0 and the HepSE_liver disease (Hepatotoxicity [9]) was 0. For the same compound, the HepSE_jaundice (Hepatotoxicity [10]) was 1, the HepSE_hepatomegaly (Hepatotoxicity [11]) was 0 and the HepSE_cirrhosis (Hepatotoxicity [12]) was 0. The HepSE_hepatitis (Hepatotoxicity [13]) was 0 and the HepSE_hepatic failure (Hepatotoxicity [14]) was 0.

— ChEMBL document CHEMBL1909294, “Translating clinical findings into knowledge in drug safety evaluation--drug induced liver injury prediction system (DILIps)” (PLoS Comput Biol, 2011)
